Experimental data: publication PMC11066976 (Cell reports, 2023)
Like-named read-outs stand apart in the source and are kept apart here.

What was measured:
Assay in all cases: compensated interferometric reader
[1] = biological target: T1, transcobalamin 2 (TCN2) (Homo sapiens, UniProt P20062); format: binding
T1 sequence (P20062 19-427): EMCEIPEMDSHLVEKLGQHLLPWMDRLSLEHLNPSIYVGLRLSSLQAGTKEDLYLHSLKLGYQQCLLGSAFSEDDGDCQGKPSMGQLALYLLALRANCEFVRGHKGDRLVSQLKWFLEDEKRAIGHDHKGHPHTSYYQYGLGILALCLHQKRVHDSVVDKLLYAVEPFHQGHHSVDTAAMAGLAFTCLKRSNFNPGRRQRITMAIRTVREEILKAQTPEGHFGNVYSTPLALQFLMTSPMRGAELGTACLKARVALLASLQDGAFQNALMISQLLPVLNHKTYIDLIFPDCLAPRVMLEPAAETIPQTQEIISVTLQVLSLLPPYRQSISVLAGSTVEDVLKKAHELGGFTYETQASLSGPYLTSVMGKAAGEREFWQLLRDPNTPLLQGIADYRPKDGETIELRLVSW

[2] = biological target: T2, CD320 (Homo sapiens, UniProt Q9NPF0); format: binding
T2 sequence (Q9NPF0 36-229 limits assumed): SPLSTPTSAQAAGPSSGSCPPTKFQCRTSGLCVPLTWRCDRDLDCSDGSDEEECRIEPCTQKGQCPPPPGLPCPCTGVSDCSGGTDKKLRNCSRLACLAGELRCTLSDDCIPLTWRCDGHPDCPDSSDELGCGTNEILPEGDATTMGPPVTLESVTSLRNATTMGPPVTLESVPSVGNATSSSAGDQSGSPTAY

[3] = biological target: T1, transcobalamin 2 (TCN2); format: binding; remark: listed apart in the source
[4] = biological target: T3, Recombinant human TCN2 (human, UniProt P20062 19-427)
T3 sequence (looked up): T1 sequence (P20062 19-427)

CCCCCCCCc1ccc(CCC(N)(CO)CO)cc1 [FTY720]
Kd [1]: 0.24 nM

CCCCCCCCCCCCC/C=C/[C@@H](O)[C@@H](N)COP(=O)(O)O [S1P]
Kd [2]: 11.8 nM

CCCCCCCCCCCCC/C=C/[C@@H](O)[C@@H](N)CO [sphingosine]
Kd [3]: 0.14 nM

Vitamin B12
Kd [3]: 0.19 nM

B1: Recombinant human CD320 (receptor, UniProt Q9NPF0 36-229, looked up)
chain: T2 sequence (Q9NPF0 36-229 limits assumed)
Kd [4]: 1.86 nM
